Assays:
[1] = tested on: pulmonary Clara cells; assay: Naphthalene lung injury model, ablation of Clara cells; type: in vivo, mouse; conditions: naphthalene alone, C57BL mice
Description: For lung injury studies, mice were given an intraperitoneal injection of naphthalene (NA) (more than 99% pure; Sigma-Aldrich), dissolved in corn oil, 200 mg per kg body weight, 40-48 hours before transplantation of embryonic lung tissue. To that end, these cells were initially evaluated in a model based on injury induction with naphthalene, as previously described [[…] et al, American Journal of Physiology-Lung Cellular and Molecular Physiology. (1995) 269(6):791]. This lung injury model mimics lung diseases caused by mild epithelial injury, detectable by changes in the expression of pulmonary Clara cells. The particular anatomical localization of Clara cells in respiratory bronchioles and in broncho-alveolar junctions enabled to accurately localize the site of injury after naphthalene exposure, and to test the ability of a single cell suspension of embryonic “window” cells to colonize and restore the injured epithelial layer in syngeneic recipients.

[2] = tested on: C57BL/6 mice, recipient lungs; assay: Assessment of GFP+ foci in chimeric lungs by morphometry after different conditioning regimens; type: in vivo, mouse; conditions: for engraftment / lung chimerism of donor-derived cells: conditioning with NA alone, 1×10^6 E16 lung cells 2 days after NA; for donor-derived foci: E16 lung cells
Description: For lung injury studies, mice were given an intraperitoneal injection of naphthalene (NA) (more than 99% pure; Sigma-Aldrich), dissolved in corn oil, 200 mg per kg body weight, 40-48 hours before transplantation of embryonic lung tissue. For ‘double’ lung injury, naphthalene-treated animals were further irradiated in a cesium irradiator (Gammacell 40), (40-48 hours after naphthalene administration). C57BL/6, tdTomato (Gt(ROSA)26Sortm4(ACTB-tdTomato,-EGFP)Luo/J mice, and Rag1^−/− mice were irradiated with 6 Gy TBI, and NOD-SCID mice were irradiated 3-4 Gy TBI. Following conditioning with NA, TBI, or both, C57BL/6 mice were transplanted with 1×10^6 GFP-positive E15-E16 embryonic lung cells injected into the tail vein 4-8 hours following irradiation. Lungs were fixed with a 4% PFA solution introduced through the trachea under a constant pressure of 20 cm H2O. Then the lungs were immersed in fixative overnight at 4° C. Lungs were processed after PFA treatment and fixed in 30% sucrose and frozen in Optimal Cutting Temperature (OCT) compound (Sakura Finetek USA, Inc. Tissue-Tek). Serial step sections, 12 μm in thickness, were taken along the longitudinal axis of the lobe. The fixed distance between the sections was calculated so as to allow systematic sampling of at least 20 sections across the whole lung. Lung slices were analyzed by fluorescence microscopy. The actual number of GFP^+ foci (a group of more than 5 distinct GFP^+ cells was defined as a single patch) was counted per slice using Image Pro software. The area of each slice was estimated by Image Pro software, and the average area of slices and average frequency of GFP^+ patches in all the slices were assessed (patch(P)/Area(A) (mm2)), assuming that the frequency per area in a large number of slices reflects distribution per volume.

[3] = tested on: endogenous lung progenitors; assay: BrdU incorporation assay (lung cell proliferation in vivo); parameters: species or system mouse
Description: Lung cell proliferation was measured in vivo by BrdU uptake. Briefly, control and four groups of experimental mice (7 days following naphthalene administration and 5 days after TBI) received a single dose of BrdU (Sigma) intraperitoneally 120 minutes before sacrifice (at a dose of 50 mg per kg of body weight). Lungs were excised, left lungs were enzymatically digested (using the same protocol as for embryonic tissue dissociation) for polychromatic FACS analysis, and right lungs were fixed with 4% PFA and processed for further immunofluorescence staining. Multiple serial slices were costained with anti-BrdU-FITC and anti-CCSP or anti-SPC antibodies. All FACS and immunohistochemical studies were done using the BrdU flow kit (BD Biosciences), according to the manufacturer's instructions. For morphometric analysis of CCSP^+BrdU^+ and SPC^+BrdU^+ cells, images were stained with anti-CCSP and anti-BrdU or anti-SPC and anti-BrdU antibodies and nuclei counterstained with Hoechst dye. The images were acquired by an observer blinded to the treatment groups, using an Olympus fluorescent microscope and Olympus digital camera (DP70) with a ×40 objective. At least 20 different stained random fields were counted for each marker.

SMILES: c1ccc2ccccc2c1 [naphthalene]
- ablation of Clara cells [1]: transient
- GFP positive patches (engraftment of donor-derived cells) ([2]; NA and 6 Gy TBI vs TBI alone or NA alone, 30 days post transplant): markedly enhanced
- engraftment / lung chimerism of donor-derived cells [2]: could not enable significant engraftment
- engraftment / lung chimerism of donor-derived cells ([2]; listed as NA): failed to attain a detectable level of lung chimerism
- donor-derived foci ([2]; conditioning with naphthalene alone, 30 days post transplant): 10-12 foci/mm^3
- donor-derived foci ([2]; conditioning with naphthalene and 6 Gy TBI, 30 days post transplant): 55 foci/mm^3
- endogenous cell recovery ([3]; 6 Gy TBI 48 hrs after NA treatment): inhibited
- level of BrdU+ cells within endothelial, epithelial and mesenchymal lineages (FACS) ([3]; 6 Gy TBI administered 48 hrs after NA): significantly reduced
- ablation of endogenous pool of progenitors ([3]; 6 Gy TBI prior to NA treatment): did not effectively ablate the endogenous pool of progenitors
- endogenous BrdU+ proliferating cells ([3]; NA alone, no transplantation): marked signal of endogenous BrdU^+ proliferating cells
